“Also recorded” adds a separate entry of the source.
What was measured:
[1] = Thermal stability by differential scanning calorimetry (DSC); format: physicochemical; details: for thermal stability: DSC chart / heat
Description: On the other hand, DSC chart of 8-(3-pentylamino)-2-methyl-3-(2-chloro-4-methoxyphenyl)-6,7-dihydro-5H-cyclopenta[d]pyrazolo[1,5-a]pyrimidine hydrochloride described in WO 02/053565 is shown in FIG. 2.
It was very surprising that the difference of the salt influenced heat stability like this greatly, and it was not easily expected.
(3) Differential Scanning Calorimeter (DSC)

human CRF1 receptor [2] = biological target: T1, human CRF1 receptor (Homo sapiens, UniProt P34998); assay: Binding assay ([125I] h/r CRF, cell membrane fraction); details: membrane fraction of CHO-K1 cells expressing human CRF1 receptor; [125I] h/r CRF 0.25 nM; 2 hours, room temperature; read-out: affinity on CRF1 receptor (IC50)
T1 construct: expressed in transfected cells; F-12 medium fits
T1 sequence (P34998 24-415): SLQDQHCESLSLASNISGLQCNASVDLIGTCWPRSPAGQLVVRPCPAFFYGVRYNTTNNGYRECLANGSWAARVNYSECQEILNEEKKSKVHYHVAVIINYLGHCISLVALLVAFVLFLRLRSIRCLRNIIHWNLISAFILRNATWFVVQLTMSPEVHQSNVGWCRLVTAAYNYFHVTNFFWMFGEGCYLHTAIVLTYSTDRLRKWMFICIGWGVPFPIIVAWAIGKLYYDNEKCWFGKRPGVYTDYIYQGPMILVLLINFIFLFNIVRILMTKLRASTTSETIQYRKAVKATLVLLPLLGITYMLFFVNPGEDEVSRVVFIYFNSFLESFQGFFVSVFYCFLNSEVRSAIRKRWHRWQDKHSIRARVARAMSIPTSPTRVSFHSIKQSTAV
Procedure: Cell Membrane Preparation
After a cell line expressing a human CRF1 receptor (expressed cell line: CHO-K1 cells) was cultured to reach confluence, the cells were harvested with a scraper. Harvested cells were washed twice with PBS before being suspended in a binding assay buffer (Tris-HCl (50 mM, pH 7.0), EDTA (2 mM, pH 8.0), and MgCl2 (10 mM)) cooled by ice. Suspended cells were homogenized with a Downs-type homogenizer and subjected to centrifugation at 10,000 g to collect the membrane fraction. The harvested cell membrane fraction was re-suspended with a small quantity of the binding assay buffer, and further diluted with said buffer to 1 mg/mL. The membrane fraction thus obtained was used for binding assay.
Fifty μL of [^125I] h/r CRF prepared to 0.5 nM with binding assay buffer was added to siliconized 1.5 mL tubes. Each of 1 μL of compounds diluted in appropriate multiples, DMSO (for total binding use) and h/r CRF solution (100 μM, for the non-specific binding use) was added to the tubes. Samples of 50 μL each of the membrane fraction preparation were added to the tubes to initiate the reaction (final concentration of [^125I] h/r CRF: 0.25 nM), then the mixtures were incubated for 2 hours at room temperature. […] Radioactivity values of the respective tubes were measured with a γ-counter. […]

human CRF1 receptor [3] = biological target: T1, human CRF1 receptor; assay: Receptor antagonistic activity (cyclic AMP assay); format: cell-based; details: cells expressing human CRF1 receptor; human/rat CRF-stimulated intracellular cyclic AMP; read-out: antagonist activity on CRF receptor (IC50)
Procedure: Receptor Antagonistic Activity (Cyclic AMP Assay):
A cell line expressing a human CRF1 receptor was cultured using 10% bovine embryo serum and 1% F-12 nutrient mixture containing antibiotics and antifungal under 37° C., 5% carbonic anhydride, 95% air. On the day before a measurement of cyclic AMP, the cell seed to 96-well plate to be 1×10^4 cell/well. On the measurement day, the cell was washed twice with F-12 nutrient mixture, and F-12 nutrient mixture/1 mM 3-isobutyl-1-methylxanthin (assay medium) (178 μL) was added to each well. After they were incubated for 10 minutes at 37° C., each of various concentrated solutions of the test compound (2 μL) was added, or DMSO (2 μL) was added to CRF group and blank group. After they were incubated for 15 minutes at 37° C., 10 nM assay medium containing human/rat CRF (20 μL) was added to the test compound group and CRF group. To the blank group, an assay medium containing 0.00001% acetic acid (20 μL) was added. Furthermore, they were incubated for 15 minutes at 37° C. […] The cumulative dosage of intracellular cyclic AMP was measured by Biotrak enzyme immunoassay system (Amersham Biosciences). […] The IC50 values calculated by nonlinear regression analysis with logarithm concentrate of the compound as the autonomous variable and cyclic AMP cumulative dosage as an induced variable

Solubility = format: physicochemical
[4] = Stability of the crystal for humidity and light; format: physicochemical

## CCC(CC)Nc1c2c(nc3c(-c4ccc(OC)cc4Cl)c(C)nn13)CCC2.Cl [the hydrochloride compound, 8-(3-pentylamino)-2-methyl-3-(2-chloro-4-methoxyphenyl)-6,7-dihydro-5H-cyclopenta[d]pyrazolo[1,5-a]pyrimidine hydrochloride, reference compound]
[1]; hydrochloride
  thermal stability: unstable compound to heat
[1]; listed as 8-(3-pentylamino)-2-methyl-3-(2-chloro-4-methoxyphenyl)-6,7-dihydro-5H-cyclopent, hydrochloride
  thermal stability: poor
[1]; DSC chart FIG. 2, then changed gradually after over 50° C.
  temperature at which the DSC curve changed significantly: ~40 °C

## CC1(C)C2CCC1(CS(=O)(=O)O)C(=O)C2.CCC(CC)Nc1c2c(nc3c(-c4ccc(OC)cc4Cl)c(C)nn13)CCC2 [camphorsulfonate (D, L, or DL)]
[1]
  thermal stability: superior in thermal stability

## CCC(CC)Nc1c2c(nc3c(-c4ccc(OC)cc4Cl)c(C)nn13)CCC2.Cc1ccc(S(=O)(=O)O)cc1 [tosylate, 8-(3-pentylamino)-2-methyl-3-(2-chloro-4-methoxyphenyl)-6,7-dihydro-5H-cyclopenta[d]pyrazolo[1,5-a]pyrimidine tosylate]
[1]
  thermal stability: superior in thermal stability

## C1=Cc2cccc(OC[C@H]3CNCCO3)c2C1.O=S(=O)(O)c1ccccc1 [benzenesulfonate]
[1]
  thermal stability: superior in thermal stability

## CCC(CC)Nc1c2c(nc3c(-c4ccc(OC)cc4Cl)c(C)nn13)CCC2 [compound (1), 8-(3-pentylamino)-2-methyl-3-(2-chloro-4-methoxyphenyl)-6,7-dihydro-5H-cyclopenta[d]pyrazolo[1,5-a]pyrimidine methanesulfonate]
Human CRF1 receptor [2]
  IC50: < 1000 nM
Human CRF1 receptor [3]
  IC50: < 1000 nM
[1]; listed as the methanesulfonate compound, methanesulfonate
  thermal stability: superior thermal stability
[1]; methanesulfonate
  thermal stability: steady; also recorded: superior in thermal stability
Solubility
  solubility: remarkably superior
Disposition
  disposition: remarkably superior
Toxicity
  toxicity: very low
[4]
  stability for humidity: steady
  stability for light: steady
